Results on three compounds are retold here after the NIST ThermoML archive (doi:10.1016/j.jct.2011.11.032).

± gives the expanded uncertainty stated by the source.

This data set in a line: molar enthalpy of vaporization or sublimation. The conditions noted are these: 298.15 K; Liquid; Static calorimetry.
Regarding `COc1cccc(OC)n1` [2,6-dimethoxypyridine], the molar enthalpy was determined as 12.9 ± 0.239 kcal/mol.

As to `COc1ccccn1` [2-methoxypyridine], the molar enthalpy is 10.8 ± 0.311 kcal/mol.

Turning to `COc1ccncc1` [4-methoxypyridine], the molar enthalpy came out at 13.7 ± 0.311 kcal/mol.
